Tests used:
[1] = molecular target: T1, Human recombinant dopamine D2L receptor (Homo sapiens, UniProt P14416); assay: D2L receptor radioligand binding inhibition ([3H]Spiperone); conditions: for inhibition at 10 µM: screened at 10 μM, mean of two replicates
T1 construct: expressed in transfected cells; host or cells: CHO
Procedure: (§1) Four novel LSD derivatives according to the present invention (referred to as “Compound 1”, “Compound 2”, “Compound 3”, and “Compound 4”; structures depicted below) were screened at 10 μM at key receptors of interest in order to determine % binding inhibition. Targets were selected due to prior evidence that LSD binds these targets with moderate or high affinities in vitro, as well as their functional significance in the context of human health.
(§2) Human recombinant dopamine D2L receptor expressed in CHO cells were used in modified Tris-HCl buffer pH 7.4. A 20 μg aliquot was incubated with 0.16 nM [^3H]Spiperone for 120 minutes at 25° C. Non-specific binding was estimated in the presence of 10 μM haloperidol. Receptor proteins were filtered and washed, the filters were then counted to determine [^3H]Spiperone specifically bound. Test compounds were screened at 10 μM.
(§3) Experimental results were expressed as a percent of control specific binding, via the equation: […]
(§4) For each target, data from two experimental replicates were averaged to generate a mean % inhibition.

[2] = molecular target: T2, Human recombinant dopamine D1 receptors (Homo sapiens, UniProt P21728); assay: D1 receptor radioligand binding inhibition ([3H]SCH-23390); conditions: for inhibition at 10 µM: screened at 10 μM, mean of two replicates
T2 construct: expressed in transfected cells; host or cells: CHO
Procedure: as §1
as §2, with “D1 receptors” for “D2L receptor”, “1.4” for “0.16”, “[^3H]SCH-23390” for “[^3H]Spiperone”, “37°” for “25°”, “(+)-butaclamol. Receptors” for “haloperidol. Receptor proteins”
as §3, §4

[3] = molecular target: T3, Human recombinant serotonin 5-HT2B receptor (Homo sapiens, UniProt P41595); assay: 5-HT2B receptor radioligand binding inhibition ([3H]LSD); conditions: for inhibition at 10 µM: screened at 10 μM, mean of two replicates
T3 construct: expressed in transfected cells; host or cells: CHO-K1
Procedure: as §1
Human recombinant serotonin 5-HT2B receptor expressed in CHO-K1 cells were used to prepare membranes in modified Tris-HCl buffer pH 7.4. A 30 μg aliquot of membrane protein was incubated with 1.2 nM [^3H]LSD for 60 minutes at 37° C. Non-specific binding was estimated in the presence of 10 μM serotonin. Membranes were filtered and washed, the filters were then counted to determine [^3H]LSD specifically bound. Test compounds were screened at 10 μM.
as §3, §4

[4] = molecular target: T4, Human recombinant serotonin 5-HT1A receptors (Homo sapiens, UniProt P08908); assay: 5-HT1A receptor radioligand binding inhibition ([3H]8-OH-DPAT); conditions: for inhibition at 10 µM: screened at 10 μM, mean of two replicates; for interaction at 5-HT1A receptor, in words: 10 μM, % inhibition greater than 50% interpreted as potentially significant interaction
T4 construct: expressed in transfected cells; host or cells: CHO-K1
T4 sequence (P08908 1-422): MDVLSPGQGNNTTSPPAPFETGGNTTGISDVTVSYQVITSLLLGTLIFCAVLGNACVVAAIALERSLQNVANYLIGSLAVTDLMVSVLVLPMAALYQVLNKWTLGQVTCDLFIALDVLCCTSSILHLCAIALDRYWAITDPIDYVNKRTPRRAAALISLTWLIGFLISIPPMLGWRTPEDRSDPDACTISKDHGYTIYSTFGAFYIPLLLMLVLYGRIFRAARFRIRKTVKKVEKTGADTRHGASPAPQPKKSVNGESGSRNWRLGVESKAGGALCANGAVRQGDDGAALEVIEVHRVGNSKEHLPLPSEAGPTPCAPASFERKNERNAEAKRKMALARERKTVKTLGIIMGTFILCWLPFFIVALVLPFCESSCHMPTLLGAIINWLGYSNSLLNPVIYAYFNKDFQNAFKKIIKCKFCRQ
Procedure: as §1
Human recombinant serotonin 5-HT1A receptors expressed in CHO-K1 cells were used in modified Tris-HCl buffer pH 7.4. An 8 μg aliquot of membrane protein was incubated with 1.5 nM [^3H]8-OH-DPAT for 60 minutes at 25° C. Non-specific binding was estimated in the presence of 10 μM metergoline. Receptors were filtered and washed, the filters were then counted to determine [^3H]8-OH-DPAT specifically bound. Test compounds were screened at 10 μM.
as §3, §4

[5] = molecular target: T5, Human recombinant dopamine D2S receptors (Homo sapiens, UniProt P14416); assay: D2S receptor radioligand binding inhibition ([3H]Spiperone); conditions: for inhibition at 10 µM: screened at 10 μM, mean of two replicates
T5 construct: expressed in transfected cells; host or cells: CHO
Procedure: as §1
as §2, with “dopamine D2S receptors” for “dopamine D2L receptor”, “A 15” for “A 20”, “haloperidol. Receptors” for “haloperidol. Receptor proteins”
as §3, §4

[6] = molecular target: T6, Human recombinant dopamine D3 receptors (Homo sapiens, UniProt P35462); assay: D3 receptor radioligand binding inhibition ([3H]Spiperone); conditions: for inhibition at 10 µM: screened at 10 μM, mean of two replicates
T6 construct: expressed in transfected cells; host or cells: CHO
Procedure: as §1
as §2, with “dopamine D3 receptors” for “dopamine D2L receptor”, “A 10” for “A 20”, “with 0.7” for “with 0.16”, “at 37°” for “at 25°”, “of 25” for “of 10”, “μM S(−)-sulpiride. Receptors” for “μM haloperidol. Receptor proteins”
as §3, §4

[7] = molecular target: T7, human recombinant serotonin 5-HT2c receptors (Homo sapiens, UniProt P28335); assay: 5-HT2C receptor radioligand binding inhibition ([3H]Mesulergine); conditions: for inhibition at 10 µM: screened at 10 μM, mean of two replicates; for interaction at 5-HT2C receptor, in words: 10 μM, % inhibition greater than 50% interpreted as potentially significant interaction
T7 construct: expressed in transfected cells; host or cells: CHO-K1 (stably transfected)
T7 sequence (P28335 33-458): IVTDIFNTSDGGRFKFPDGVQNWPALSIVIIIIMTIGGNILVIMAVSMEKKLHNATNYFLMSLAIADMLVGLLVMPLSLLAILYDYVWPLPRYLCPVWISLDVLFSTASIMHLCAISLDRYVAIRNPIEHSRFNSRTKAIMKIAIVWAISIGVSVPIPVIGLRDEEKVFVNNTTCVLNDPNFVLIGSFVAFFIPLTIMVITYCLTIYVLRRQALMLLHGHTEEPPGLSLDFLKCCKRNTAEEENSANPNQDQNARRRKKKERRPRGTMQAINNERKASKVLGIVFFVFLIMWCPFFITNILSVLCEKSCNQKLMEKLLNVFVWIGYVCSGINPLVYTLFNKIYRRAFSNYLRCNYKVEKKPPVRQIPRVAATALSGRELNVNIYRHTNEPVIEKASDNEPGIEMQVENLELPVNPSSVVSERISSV
Procedure: as §1
CHO-K1 cells stably transfected with a plasmid encoding the human recombinant serotonin 5-HT2c receptors were used to prepare membranes in modified Tris-HCl buffer pH 7.4. A 3.2 μg aliquot of membrane protein was incubated with 1.0 nM [^3H]Mesulergine for 60 minutes at 25° C. Non-specific binding was estimated in the presence of 1 μM Mianserin. Membranes were filtered and washed, the filters were then counted to determine [^3H]Mesulergine specifically bound. Test compounds were screened at 10 μM.
as §3, §4

[8] = molecular target: T8, Human recombinant serotonin 5-HT2A receptors (Homo sapiens, UniProt P28223); assay: 5-HT2A receptor radioligand binding inhibition ([3H]Ketanserin); conditions: for inhibition at 10 µM: screened at 10 μM, mean of two replicates; for interaction at 5-HT2A receptor, in words: 10 μM, % inhibition greater than 50% interpreted as potentially significant interaction; for selectivity as ligand of the 5-HT2A receptor, in words: conclusion from % inhibition at 10 μM over ten receptors
T8 construct: expressed in transfected cells; host or cells: CHO-K1
Procedure: as §1
Human recombinant serotonin 5-HT2A receptors expressed in CHO-K1 cells were used in modified Tris-HCl buffer pH 7.4. A 30 μg aliquot of membrane protein was incubated with 0.5 nM [^3H]Ketanserin for 60 minutes at 25° C. Non-specific binding was estimated in the presence of 1 μM Mianserin. Receptors were filtered and washed, the filters were then counted to determine [^3H]Ketanserin specifically bound. Test compounds were screened at 10 μM.
as §3, §4

[9] = molecular target: T9, Human recombinant adenosine A2A receptors (Homo sapiens, UniProt P29274); assay: A2A receptor radioligand binding inhibition ([3H]CGS-21680); conditions: for inhibition at 10 µM: screened at 10 μM, mean of two replicates; for interaction at A2A receptor, in words: 10 μM, % inhibition greater than 50% interpreted as potentially significant interaction
T9 construct: expressed in transfected cells; host or cells: HEK-293
Procedure: as §1
Human recombinant adenosine A2A receptors expressed in human HEK-293 cells were used in modified Tris-HCl buffer pH 7.4. A 15 μg aliquot was incubated with 50 nM [^3H]CGS-21680 for 90 minutes at 25° C. Non-specific binding was estimated in the presence of 50 μM NECA. Receptor were filtered and washed, the filters were then counted to determine [^3H]CGS-21680 specifically bound. Test compounds were screened at 10 μM.
as §3, §4

[10] = test system: human dopamine D4.7 receptor; assay: D4.7 receptor radioligand binding inhibition ([3H]Spiperone); conditions: for interaction at D4.7 receptor, in words: 10 μM, % inhibition greater than 50% interpreted as potentially significant interaction; for % inhibition, D4.7: screened at 10 μM, mean of two replicates
Procedure: as §1
CHO-K1 cells stably transfected with a plasmid encoding the human dopamine D4.7 receptor were used to prepare membranes in modified Tris-HCl buffer pH 7.4. A 60 μg aliquot of membrane was incubated with 1.5 nM [^3H]Spiperone for 120 minutes at 25° C. Non-specific binding was estimated in the presence of 10 μM haloperidol. Membranes were filtered and washed, the filters were then counted to determine [^3H]Spiperone specifically bound. Test compounds were screened at 10 μM.
as §3, §4

[11] = 10 μM, % inhibition greater than 50% interpreted as potentially significant interaction

T8 sequence (P28223 whole entry): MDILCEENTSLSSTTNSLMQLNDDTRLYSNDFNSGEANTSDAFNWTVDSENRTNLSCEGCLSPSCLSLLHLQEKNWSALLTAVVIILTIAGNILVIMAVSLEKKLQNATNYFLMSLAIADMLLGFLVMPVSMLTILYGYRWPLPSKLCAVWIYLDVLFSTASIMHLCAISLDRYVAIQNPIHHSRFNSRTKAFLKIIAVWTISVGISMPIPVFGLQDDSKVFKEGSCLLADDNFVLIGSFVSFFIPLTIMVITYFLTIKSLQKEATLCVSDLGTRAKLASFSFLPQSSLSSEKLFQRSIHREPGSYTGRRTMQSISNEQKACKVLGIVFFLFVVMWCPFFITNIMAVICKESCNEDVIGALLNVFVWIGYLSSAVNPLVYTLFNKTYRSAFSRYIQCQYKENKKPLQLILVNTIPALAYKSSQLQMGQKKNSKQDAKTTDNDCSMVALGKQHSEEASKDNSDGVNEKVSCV
T3 sequence (P41595 whole entry): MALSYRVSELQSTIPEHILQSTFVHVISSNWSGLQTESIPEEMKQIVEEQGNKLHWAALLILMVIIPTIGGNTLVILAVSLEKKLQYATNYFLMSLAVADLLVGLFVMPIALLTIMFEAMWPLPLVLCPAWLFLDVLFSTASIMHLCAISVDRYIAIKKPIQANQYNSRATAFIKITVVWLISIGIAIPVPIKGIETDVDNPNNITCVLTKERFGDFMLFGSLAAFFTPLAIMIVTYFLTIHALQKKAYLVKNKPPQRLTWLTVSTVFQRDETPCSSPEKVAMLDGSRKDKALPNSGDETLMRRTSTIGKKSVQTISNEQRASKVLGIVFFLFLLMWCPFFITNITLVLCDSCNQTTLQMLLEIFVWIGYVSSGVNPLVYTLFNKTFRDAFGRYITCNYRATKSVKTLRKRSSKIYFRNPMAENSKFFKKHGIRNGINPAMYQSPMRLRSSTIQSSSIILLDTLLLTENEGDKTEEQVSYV
T9 sequence (P29274 whole entry): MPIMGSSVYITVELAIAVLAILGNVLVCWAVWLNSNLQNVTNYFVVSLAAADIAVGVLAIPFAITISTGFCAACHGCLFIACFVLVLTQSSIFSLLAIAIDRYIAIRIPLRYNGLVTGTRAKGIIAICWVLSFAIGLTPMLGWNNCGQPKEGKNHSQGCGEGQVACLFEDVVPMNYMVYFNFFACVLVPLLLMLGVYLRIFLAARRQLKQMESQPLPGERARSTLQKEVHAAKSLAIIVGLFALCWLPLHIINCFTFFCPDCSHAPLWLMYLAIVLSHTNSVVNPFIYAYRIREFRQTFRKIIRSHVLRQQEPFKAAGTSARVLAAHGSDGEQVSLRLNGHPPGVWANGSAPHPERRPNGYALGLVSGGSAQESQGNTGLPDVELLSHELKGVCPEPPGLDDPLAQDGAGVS
T5 sequence (P14416 1-414 isoform P14416-2): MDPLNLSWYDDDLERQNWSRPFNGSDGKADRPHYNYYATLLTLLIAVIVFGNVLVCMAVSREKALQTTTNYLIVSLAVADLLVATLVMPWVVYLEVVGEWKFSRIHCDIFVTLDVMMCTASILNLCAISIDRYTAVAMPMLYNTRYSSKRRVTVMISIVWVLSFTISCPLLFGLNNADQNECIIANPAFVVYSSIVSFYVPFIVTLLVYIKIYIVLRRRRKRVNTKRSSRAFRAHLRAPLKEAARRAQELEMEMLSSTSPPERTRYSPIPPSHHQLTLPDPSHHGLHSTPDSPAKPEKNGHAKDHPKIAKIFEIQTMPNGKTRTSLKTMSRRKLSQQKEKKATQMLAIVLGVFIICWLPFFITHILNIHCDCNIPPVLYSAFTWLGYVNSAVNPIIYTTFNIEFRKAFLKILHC
T6 sequence (P35462 whole entry): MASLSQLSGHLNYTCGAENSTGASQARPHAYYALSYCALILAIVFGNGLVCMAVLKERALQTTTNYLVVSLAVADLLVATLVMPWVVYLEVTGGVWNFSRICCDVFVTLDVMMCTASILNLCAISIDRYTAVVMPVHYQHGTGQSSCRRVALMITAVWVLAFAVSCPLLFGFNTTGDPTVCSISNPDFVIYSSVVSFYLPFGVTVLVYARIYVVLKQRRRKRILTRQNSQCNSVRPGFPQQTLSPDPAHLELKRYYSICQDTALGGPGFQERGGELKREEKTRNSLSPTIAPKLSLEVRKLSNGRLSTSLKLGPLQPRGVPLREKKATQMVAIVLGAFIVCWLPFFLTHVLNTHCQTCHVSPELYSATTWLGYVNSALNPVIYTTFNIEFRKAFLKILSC
T1 sequence (P14416 whole entry): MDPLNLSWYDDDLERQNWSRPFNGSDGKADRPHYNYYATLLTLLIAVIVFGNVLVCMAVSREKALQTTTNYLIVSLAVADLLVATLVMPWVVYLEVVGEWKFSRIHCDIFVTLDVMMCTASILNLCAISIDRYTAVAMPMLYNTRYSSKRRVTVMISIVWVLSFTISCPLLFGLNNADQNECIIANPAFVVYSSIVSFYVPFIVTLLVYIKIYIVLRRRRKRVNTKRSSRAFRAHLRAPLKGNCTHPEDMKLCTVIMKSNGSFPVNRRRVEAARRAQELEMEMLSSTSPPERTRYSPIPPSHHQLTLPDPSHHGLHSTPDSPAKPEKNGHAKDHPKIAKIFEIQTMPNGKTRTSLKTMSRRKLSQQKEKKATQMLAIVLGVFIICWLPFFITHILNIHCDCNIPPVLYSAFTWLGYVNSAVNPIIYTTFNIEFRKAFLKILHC
T2 sequence (P21728 whole entry): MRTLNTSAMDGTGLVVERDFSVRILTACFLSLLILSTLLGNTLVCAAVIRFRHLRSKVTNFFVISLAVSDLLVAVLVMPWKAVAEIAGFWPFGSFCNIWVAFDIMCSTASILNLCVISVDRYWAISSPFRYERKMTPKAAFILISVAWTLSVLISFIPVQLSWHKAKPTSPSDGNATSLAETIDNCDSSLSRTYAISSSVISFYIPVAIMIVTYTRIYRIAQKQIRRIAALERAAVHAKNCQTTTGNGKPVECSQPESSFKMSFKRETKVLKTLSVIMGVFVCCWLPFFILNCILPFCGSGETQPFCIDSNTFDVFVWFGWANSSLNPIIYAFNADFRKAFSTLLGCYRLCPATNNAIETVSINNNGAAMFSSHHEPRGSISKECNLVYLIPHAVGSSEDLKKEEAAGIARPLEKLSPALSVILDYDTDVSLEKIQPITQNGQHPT

CN1CC(C(=O)N2CC3(COC3)C2)C=C2c3cccc4[nH]cc(c34)CC21 (centres unmarked) [Compound 1, 2-oxa-6-azaspiro[3.3]heptyl-lysergic acid amide]
inhibition at 10 µM [1]: 78.8% | inhibition at 10 µM [2]: 85.6% | inhibition at 10 µM [3]: 96.8% | inhibition at 10 µM [4]: 96.3% | inhibition at 10 µM [5]: 83.1% | inhibition at 10 µM [6]: 94.5% | inhibition at 10 µM [7]: 85.8% | inhibition at 10 µM [8]: 95.3% | inhibition at 10 µM [9]: -12.3%

CCN(CC)C(=O)C1C=C2c3cccc4[nH]cc(c34)CC2N(CCF)C1 (centres unmarked) [Compound 2, 6-(2-mono-fluoro-ethyl)-6-nor-lysergic acid diethylamide]
interaction at D2L receptor, in words [1, 11]: no significant interaction | inhibition at 10 µM [1]: 7.9% | interaction at D1 receptor, in words [2, 11]: no significant interaction | inhibition at 10 µM [2]: 4.3% | interaction at D4.7 receptor, in words [10]: no significant interaction | % inhibition, D4.7 [10]: 2.8% | inhibition at 10 µM [3]: 90.5% | interaction at 5-HT1A receptor, in words [4]: very high % inhibition | inhibition at 10 µM [4]: 100% | interaction at D2S receptor, in words [5, 11]: no significant interaction | inhibition at 10 µM [5]: 0.6% | interaction at D3 receptor, in words [6, 11]: no significant interaction | inhibition at 10 µM [6]: 14.2% | interaction at 5-HT2C receptor, in words [7]: no significant interaction | inhibition at 10 µM [7]: 4.8% | interaction at 5-HT2A receptor, in words [8]: very high % inhibition | selectivity as ligand of the 5-HT2A receptor, in words [8]: advantageously selective ligands of the 5-HT2A receptor | inhibition at 10 µM [8]: 95.7% | interaction at A2A receptor, in words [9]: no significant interaction | inhibition at 10 µM [9]: -2.5%

CN1CC(C(=O)NCC(F)(F)F)C=C2c3cccc4[nH]cc(c34)CC21 (centres unmarked) [Compound 3, lysergic acid mono-(trifluoroethyl)amide]
inhibition at 10 µM [1]: 63.1% | inhibition at 10 µM [2]: 53.8% | interaction at D4.7 receptor, in words [10]: no significant interaction | % inhibition, D4.7 [10]: 20.1% | interaction at 5-HT2B receptor, in words [3, 11]: significant interaction | inhibition at 10 µM [3]: 94.9% | interaction at 5-HT1A receptor, in words [4]: significant interaction | inhibition at 10 µM [4]: 101% | inhibition at 10 µM [5]: 64.2% | D3 % inhibition compared with other dopamine receptors, in words ([6]; 10 μM, may indicate greater selectivity for D3): higher % inhibition than at other dopamine receptors | inhibition at 10 µM [6]: 94.7% | interaction at 5-HT2C receptor, in words [7]: significant interaction | inhibition at 10 µM [7]: 89.4% | interaction at 5-HT2A receptor, in words [8]: significant interaction | selectivity as ligand of the 5-HT2A receptor, in words [8]: advantageously selective ligands of the 5-HT2A receptor | inhibition at 10 µM [8]: 93.1% | interaction at A2A receptor, in words [9]: no significant interaction | inhibition at 10 µM [9]: -2%

CCN(CCF)C(=O)C1C=C2c3cccc4[nH]cc(c34)CC2N(C)C1 (centres unmarked) [Compound 4, lysergic acid monofluoro diethylamide]
inhibition at 10 µM [1]: 92.7% | inhibition at 10 µM [2]: 97.1% | % inhibition, D4.7 [10]: 71.6% | inhibition at 10 µM [3]: 97.9% | inhibition at 10 µM [4]: 100% | inhibition at 10 µM [5]: 92.1% | inhibition at 10 µM [6]: 97.7% | inhibition at 10 µM [7]: 100% | selectivity as ligand of the 5-HT2A receptor, in words [8]: advantageously selective ligands of the 5-HT2A receptor | inhibition at 10 µM [8]: 97.1% | interaction at A2A receptor, in words [9]: no significant interaction | inhibition at 10 µM [9]: 12.3%

— US20230286975A1, “IMPROVED METHOD FOR THE PRODUCTION OF LYSERGIC ACID DIETHYLAMIDE (LSD) AND NOVEL DERIVATIVES THEREOF” (COMPASS […], priority 2020, published 2023)
